Measured values: US7863321B2, “Anti-cancer combinations” (Cancer Research Technology Limited, priority 2001, dated 2011)
Counter-ions that a name gives are not always drawn. Like-named read-outs stand apart in the source and are kept apart here. Marks after values point to notes of the source that are not given here.

How the values were obtained:
[1] = system: MDAH-Mca-4 tumours; assay type: in vivo, C3H/HeN mice; details: for DMF: Dose Modifying Factor = gradient with DMXAA (80 μmol/kg)/gradient without DMXAA; for growth delays at their MTDs: chemotherapy drug alone at MTD; for Slope of dose/response: growth delay vs dose, linear regression; for single agent activity against MDAH-Mca-4 tumour: doses up to MTD
Protocol: (§1) Compounds: A stock solution of DMXAA, synthesised in the Auckland Cancer Society Research Centre, was prepared in phosphate-buffered saline, protected from light and stored frozen. Cisplatin (Sigma Chemical Co., St. Louis, Mo.) was dissolved in 0.9% saline. Stock solutions of carboplatin and 5-fluorouracil (Bristol Myers Squibb, Sermonita, Italy) and cyclophosphamide (Mead Johnson Oncology Products, Princeton, N.J.) were diluted with sterile water. […] All compounds were administered to mice by i.p. injection at 0.01 ml/g bodyweight.
(§2) Animals and Tumours: Murine mammary carcinoma MDAH-Mca-4 tumours were grown from stocks stored in liquid nitrogen at the sixth transplant generation. Tumours (eighth transplant generation when used) were grown from 20 μl of cell suspension (7 mg packed cells), inoculated i.m. (intramuscular) in the right gastrocnemius muscle of female C3H/HeN mice (22-25 g at the time of treatment). Mice were randomised to treatment which commenced when the tumour+leg diameter reached 10-11 mm (0.5-0.7 g tumour).
(§3) Host Toxicity and Antitumour Activity: Mice were treated with chemotherapeutic drugs at a range of doses, at 1.33-fold increments, up to the expected MTD (maximum tolerated dose, as estimated in pilot experiments or from the literature). Toxicity was assessed as lethality, and body weight loss measured four days after treatment. Any animals becoming moribund were terminated and treated as drug-related deaths in the analysis. The diameter of the tumour-bearing leg was measured 3 times per week after treatment. Antitumour activity was assessed from the tumour growth delay, defined as the difference in time to reach the endpoint of 13 mm (1.5 g tumour) for treated and control groups. Responses were classed as cures if animals were free of evident tumour 120 days after treatment. The statistical significance of tumour growth inhibition was tested by ANOVA using SAS for Windows, with Dunnett's test to evaluate p-values for differences between treatment groups. In experiments with substantial numbers of cures (free of tumour for >120 days after treatment), statistical significance was tested by Kruskal-Wallis non-parametric analysis of variance using SAS for Windows, and the difference between treatment and control groups by Dunn's test using Sigmastat v2.0. The gradient and standard error of dose-response curves was determined by linear regression using Sigmastat, and the DMF (Dose Modifying Factor) calculated as the gradient with DMXAA/gradient without DMXAA.

[2] = in vivo
Protocol: as §1, §2, §3

[3] = in vivo; details: female, C3H/HeN, mouse, plasma, ip, 80 μmol/kg
Protocol: (§4) Pharmacokinetics: Female C3H/HeN mice bearing MDAH-Mca-4 tumours (0.5-0.7 g) were injected i.p. with carboplatin (316 μmol/kg), DMXAA (80 μmol/kg), or simultaneously received carboplatin and DMXAA, at the same doses. […] Groups of 2-5 mice were used for each time point.
(§5) HPLC analysis of DMXAA: Concentrations of DMXAA in plasma were determined as follows. Aliquots of plasma (50 μl) were treated with 1 ml of ice-cold acetonitrile:methanol (3:1 v/v), centrifuged, and the resulting supernatants evaporated using a Speed-Vac solvent concentrator (Savant Instruments, NY). The residues were dissolved in 200 μl of 10 mM ammonium acetate buffer (pH 5) and 25 μl was analysed by HPLC using a HP1100 system with diode array detector (278 nm) and fluorescence detector. The column used was a 3.2 mm×150 mm C8 5 μm column (Alltima Associates Inc., Deerfield, Ill.) and a flow rate of 0.7 ml/min, with a mobile phase of 16% acetonitrile (v/v) in 10 mM ammonium acetate buffer (pH 5). The retention time for DMXAA was 7.3 min. […] The intra- and inter-assay precision and accuracy gave coefficients of variation <7%, and an average recovery of 70%. The lower sensitivity limit of detection by fluorescence (signal:noise ratio of 3) was 0.1 μM. […]

[4] = Pharmacokinetics of carboplatin (platinum by ICP-MS) and DMXAA (HPLC) in plasma and tumour; details: plasma; DMXAA 80 μmol/kg i.p.; (% CV)
Protocol: as §4, §5

[5] = system: PSN1 pancreatic tumour xenografts; experiment: PSN1 xenograft tumour volume tripling and doubling time; details: i.v., DMXAA 20 mg/kg, gemcitabine 240 mg/kg, female MF1 nude mice; for PSN1 volume doubling times, Median: control 3.2; for PSN1 volume tripling times, Median: control 4.9
[6] = system: tumour blood flow; details: Phase I clinical trials, well-tolerated doses; cited from earlier work
[7] = chemotherapy drug alone, ± standard error of the slope
[8] = co-administered with DMXAA 80 μmol/kg
[9] = chemotherapy drug co-administered with DMXAA 80 μmol/kg, i.p.
[10] = female, C3H/HeN, mouse, in vivo, ip, MTD
[11] = chemotherapy drug alone, i.p., mice bearing MDAH-Mca-4 tumours
[12] = female, C3H/HeN, mouse, in vivo, ip
[13] = DMXAA alone at 80 μmol/kg, i.p.

SMILES | DMF [1] | growth delays at their MTDs [1] | Slope of dose/response [1, 7] | Slope of dose/response [1, 8] | % body weight change at 4 days ([2]; chemotherapy drug alone, i.p.) | % body weight change at 4 days [2, 9] | MTD [2, 10] | single agent activity against MDAH-Mca-4 tumour ([1]; chemotherapy drug alone) | other results
O=c1[nH]cc(F)c(=O)[nH]1 [5-fluorouracil, 5-fluoro-2,4(1H,3H)-pyrimidinedione] | 0.5 ± 0.2 | ~10 days | 0.0051 ± 0.001^a days/μmol/kg | 0.0027 ± 0.001 days/µmol/kg | −8.5 ± 0.8% | −14.1 ± 1.5% | 1780 µmol/kg |  | 
N.N.O=C([O-])C1(C(=O)[O-])CCC1.[Pt+2] [Carboplatin, platinum, diammine [1,1-cyclobutanedicarboxylato(2-)-0,0′]-, (SP-4-2)] | 3.4 ± 2.3 |  | 0.0094 ± 0.0035 days/µmol/kg | 0.032 ± 0.010 days/µmol/kg | −5.6 ± 1.5% | −8.5 ± 1.4% |  | essentially inactive | MTD [2, 11]: 316 µmol/kg; MTD [2, 9]: 316 µmol/kg
N.N.[Cl][Pt][Cl] [Cisplatin] | 1.8 ± 1.2 | ~10 days | 0.19 ± 0.06 days/µmol/kg | 0.35 ± 0.12 days/µmol/kg | −9.5 ± 1.4% | −14.4 ± 2.3% |  |  | MTD [2, 11]: 42.1 µmol/kg; MTD [2, 9]: 42.1 µmol/kg
O=P1(N(CCCl)CCCl)NCCCO1 (centres unmarked) [Cyclophosphamide, 2-[bis(2-chloroethyl)amino]tetrahydro-2H-13,2-oxazaphosphorine-2-oxide monohydrate] | 2.7 ± 0.3 | ~10 days | 0.0062 ± 0.0001 days/µmol/kg | 0.0167 ± 0.0013 days/µmol/kg | −0.8 ± 1.3% | −9.2 ± 1.4% |  |  | MTD at 4 days [2, 12]: ≥ 1340 µmol/kg
Cc1ccc2c(=O)c3cccc(CC(=O)O)c3oc2c1C [DMXAA, 5,6-dimethylxanthenone-4-acetic acid] |  |  |  |  |  |  |  |  | Km [3]: 220 µM; Vmax [4]: 63 (6.1) μm hr^−1; PSN1 volume doubling times, Treated-Control [5]: 0.4 days; PSN1 volume tripling times, Treated-Control [5]: 1.1 days; PSN1 volume doubling times, Median [5]: 3.6 days; PSN1 volume tripling times, Median [5]: 6.0 days; mean tumour growth delays (range) [1, 13]: 3.5 to 8.3 days; tumour growth delay, overall mean [1, 13]: 6.6 ± 0.6 days; tumour blood flow by dynamic MRI [6]: significant reduction in tumour blood flow
COc1cccc2c1C(=O)c1c(O)c3c(c(O)c1C2=O)C[C@@](O)(C(=O)CO)C[C@@H]3O[C@H]1C[C@H](N)[C@H](O)[C@H](C)O1 [Doxorubicin, (8S,10S)-10-[(3-amino-2,3,6-trideoxy-a-L-lyxo-hexopyranosyl)oxy]-8-glycolyl-7,8,9,10-tetrahydro-6,8,11-trihydroxy-1-meth-oxy-5,12-naphthacenedione hydrochloride] | 2.5 ± 1.1 | ~10 days | 0.42 ± 0.10 days/µmol/kg |  | −3.9 ± 0.6% | −5.5 ± 1.2% | 23.7 µmol/kg |  | MTD [2, 12]: 17.8 µmol/kg
COc1cc([C@@H]2c3cc4c(cc3[C@@H](O[C@@H]3O[C@@H]5CO[C@@H](C)O[C@H]5[C@H](O)[C@H]3O)[C@H]3COC(=O)[C@H]23)OCO4)cc(OC)c1O [Etoposide, 4′-demethylepipodophyllotoxin-9-[4,6-0-(R)-ethylidene-(beta)-D-glucopyranoside]] | 4.7 ± 2.9 |  | 0.030 ± 0.010 days/µmol/kg | 0.14 ± 0.04 days/µmol/kg | −2.0 ± 1.7% | −6.5 ± 3.3% | ≥ 75 µmol/kg | essentially inactive | 
CC[C@]1(O)C[C@H]2CN(CCc3c([nH]c4ccccc34)[C@@](C(=O)OC)(c3cc4c(cc3OC)N(C=O)[C@H]3[C@@](O)(C(=O)OC)[C@H](OC(C)=O)[C@]5(CC)C=CCN6CC[C@]43[C@@H]65)C2)C1 [Vincristine] | >7^c |  | -0.0 ± 1.3 days/µmol/kg | 14.1 ± 5.4 days/µmol/kg | −7.0 ± 1.2% | −10.0 ± 1.4% |  | essentially inactive | MTD ([2]; female, C3H/HeN, mouse, in vivo, ip, MTD, chemotherapy drug alone, mice bearing MDAH-Mca-4 tumours): 1 µmol/kg; MTD ([2]; female, C3H/HeN, mouse, in vivo, ip, MTD, chemotherapy drug co-administered with DMXAA 80 μmol/kg): 1 µmol/kg
Nc1ccn([C@@H]2O[C@H](CO)[C@@H](O)C2(F)F)c(=O)n1 [gemcitabine, 2′-deoxy-2′,2′-difluorocytidine monohydrochloride (b-isomer)] |  |  |  |  |  |  |  |  | PSN1 volume doubling times, Treated-Control [5]: 7.5 days; PSN1 volume tripling times, Treated-Control [5]: 9.0 days; PSN1 volume doubling times, Median [5]: 9.7 days; PSN1 volume tripling times, Median [5]: 13.9 days
